Measurements reported in PubChem BioAssay AID1845199 (Molecular Pharmacology Branch, DTP, NCI, 2023).

Test system: 556581-035-R-J1 tumor spheroid viability, % test/control
Experiment: Anticancer human tumor 556581-035-R-J1 patient-derived ovarian carcinoma cell line growth inhibition
Conditions: spheroids with HUVEC and MSC; for IC50: curve of first compound; for viability, T/C: stronger effect = lower value
Outline: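 Single agents and combinations were tested on spheroids built from tumor cells plus HUVEC and hMSC, at half-log dilutions starting at or near clinical Cmax, else 10 microM; final DMSO 0.25% (v/v).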

[1] = second compound 30 pM, first compound 0.00949 µM
[2] = second compound 30 pM, first compound 0.03 µM
[3] = second compound 30 pM, first compound 0.0949 µM
[4] = second compound 30 pM, first compound 0.3 µM
[5] = second compound 30 pM, first compound 0.949 µM
[6] = second compound 30 pM, first compound 3 µM
[7] = second compound 94.9 pM, first compound 0.00949 µM
[8] = second compound 94.9 pM, first compound 0.03 µM
[9] = second compound 94.9 pM, first compound 0.0949 µM
[10] = second compound 94.9 pM, first compound 0.3 µM
[11] = second compound 94.9 pM, first compound 0.949 µM
[12] = second compound 94.9 pM, first compound 3 µM
[13] = second compound 0.0003 µM, first compound 0.00949 µM
[14] = second compound 0.0003 µM, first compound 0.03 µM
[15] = second compound 0.0003 µM, first compound 0.0949 µM
[16] = second compound 0.0003 µM, first compound 0.3 µM
[17] = second compound 0.0003 µM, first compound 0.949 µM
[18] = second compound 0.0003 µM, first compound 3 µM
[19] = second compound 0.000949 µM, first compound 0.00949 µM
[20] = second compound 0.000949 µM, first compound 0.03 µM
[21] = second compound 0.000949 µM, first compound 0.0949 µM
[22] = second compound 0.000949 µM, first compound 0.3 µM
[23] = second compound 0.000949 µM, first compound 0.949 µM
[24] = second compound 0.000949 µM, first compound 3 µM
[25] = second compound 0.003 µM, first compound 0.00949 µM
[26] = second compound 0.003 µM, first compound 0.03 µM
[27] = second compound 0.003 µM, first compound 0.0949 µM
[28] = second compound 0.003 µM, first compound 0.3 µM
[29] = second compound 0.003 µM, first compound 0.949 µM
[30] = second compound 0.003 µM, first compound 3 µM
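Also: spheroids exposed to compounds for 7 days before viability read.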

| Compound | IC50 (second compound 30 pM) | IC50 (second compound 94.9 pM) | IC50 (second compound 0.0003 µM) | IC50 (second compound 0.000949 µM) | IC50 (second compound 0.003 µM) | viability, T/C [3] | viability, T/C [4] | viability, T/C [5] | viability, T/C [6] | viability, T/C [9] | viability, T/C [10] | viability, T/C [11] | viability, T/C [12] | viability, T/C [15] | viability, T/C [16] | viability, T/C [17] | viability, T/C [18] | viability, T/C [21] | viability, T/C [22] | viability, T/C [23] | further results |
| --- | --- | --- | --- | --- | --- | --- | --- | --- | --- | --- | --- | --- | --- | --- | --- | --- | --- | --- | --- | --- | --- |
| CNCc1ccc(-c2cc(-c3nc(-c4ccc(S(=O)(=O)C(C)C)cc4)cnc3N)on2)cc1 + COc1cc2c(cc1O)CCNC21CSC2c3c(OC(C)=O)c(C)c4c(c3C(COC1=O)N1C(O)C3Cc5cc(C)c(OC)c(O)c5C(C21)N3C)OCO4 | 1.61 µM | 1.24 µM | 0.725 µM | < 0.00949 µM | < 0.00949 µM | 108% | 108% | 69.4% | 27.1% | 105% | 96.1% | 61% | 13.6% | 107% | 94.3% | 36.5% | 11% | 25.6% | 9.62% | 2.92% | viability, T/C [1]: 99.4%; viability, T/C [2]: 108%; viability, T/C [7]: 105%; viability, T/C [8]: 102%; viability, T/C [13]: 94.4%; viability, T/C [14]: 97.1%; viability, T/C [19]: 28.1%; viability, T/C [20]: 38.3%; viability, T/C [24]: 0.33%; viability, T/C [25]: 0.74%; viability, T/C [26]: 0.64%; viability, T/C [27]: 0.49%; viability, T/C [28]: 0.47%; viability, T/C [29]: 0.42%; viability, T/C [30]: 0.33% |
| Cc1sc2c(c1C)C(c1ccc(Cl)cc1)=NC(CC(=O)Nc1ccc(O)cc1)c1nnc(C)n1-2 (stereo not given) + COc1cc2c(cc1O)CCNC21CSC2c3c(OC(C)=O)c(C)c4c(c3C(COC1=O)N1C(O)C3Cc5cc(C)c(OC)c(O)c5C(C21)N3C)OCO4 | > 3 µM | > 3 µM | 0.782 µM | < 0.00949 µM | < 0.00949 µM | 83.8% | 80.1% | 72.1% | 63.5% | 87.4% | 75.8% | 71% | 54.9% | 80.3% | 64.4% | 47.4% | 35.4% | 15.9% | 5.84% | 1.81% | viability, T/C [1]: 107%; viability, T/C [2]: 101%; viability, T/C [7]: 112%; viability, T/C [8]: 102%; viability, T/C [13]: 90.1%; viability, T/C [14]: 88.2%; viability, T/C [19]: 21.7%; viability, T/C [20]: 18.8%; viability, T/C [24]: 0.31%; viability, T/C [25]: 0.52%; viability, T/C [26]: 0.55%; viability, T/C [27]: 0.44%; viability, T/C [28]: 0.36%; viability, T/C [29]: 0.97%; viability, T/C [30]: 1.24% |
| Cn1ncnc1[C@H]1c2n[nH]c(=O)c3cc(F)cc(c23)N[C@@H]1c1ccc(F)cc1 + COc1cc2c(cc1O)CCNC21CSC2c3c(OC(C)=O)c(C)c4c(c3C(COC1=O)N1C(O)C3Cc5cc(C)c(OC)c(O)c5C(C21)N3C)OCO4 | > 3 µM | > 3 µM | 2.23 µM | < 0.00949 µM | < 0.00949 µM | 93.5% | 86.7% | 74.5% | 58.7% | 89.5% | 84.9% | 69.7% | 51.7% | 84.1% | 79.1% | 68.7% | 43.4% | 31.8% | 28.1% | 7.63% | viability, T/C [1]: 100%; viability, T/C [2]: 96.7%; viability, T/C [7]: 99.7%; viability, T/C [8]: 97.7%; viability, T/C [13]: 85.6%; viability, T/C [14]: 91.8%; viability, T/C [19]: 39.6%; viability, T/C [20]: 33.9%; viability, T/C [24]: 1.54%; viability, T/C [25]: 0.96%; viability, T/C [26]: 0.99%; viability, T/C [27]: 0.97%; viability, T/C [28]: 1.34%; viability, T/C [29]: 1.27%; viability, T/C [30]: 1.68% |
| O=C(c1cc(Cc2n[nH]c(=O)c3ccccc23)ccc1F)N1CCN(C(=O)C2CC2)CC1 + COc1cc2c(cc1O)CCNC21CSC2c3c(OC(C)=O)c(C)c4c(c3C(COC1=O)N1C(O)C3Cc5cc(C)c(OC)c(O)c5C(C21)N3C)OCO4 | > 30 µM | > 30 µM | > 30 µM | < 0.0949 µM | < 0.0949 µM | 104% | 105% | 103% | 93.7% | 98.1% | 103% | 96.2% | 90% | 89.5% | 88.7% | 88.6% | 87.2% | 35% | 27.9% | 27.9% | viability, T/C (second compound 30 pM, first compound 9.49 µM): 79.7%; viability, T/C (second compound 30 pM, first compound 30 µM): 63.5%; viability, T/C (second compound 94.9 pM, first compound 9.49 µM): 75.6%; viability, T/C (second compound 94.9 pM, first compound 30 µM): 63%; viability, T/C (second compound 0.0003 µM, first compound 9.49 µM): 66.8%; viability, T/C (second compound 0.0003 µM, first compound 30 µM): 50.1%; viability, T/C [24]: 23.4%; viability, T/C (second compound 0.000949 µM, first compound 9.49 µM): 7.48%; viability, T/C (second compound 0.000949 µM, first compound 30 µM): 1.51%; viability, T/C [27]: 0.86%; viability, T/C [28]: 0.88%; viability, T/C [29]: 0.88%; viability, T/C [30]: 1.14%; viability, T/C (second compound 0.003 µM, first compound 9.49 µM): 1.42%; viability, T/C (second compound 0.003 µM, first compound 30 µM): 2.1% |
